Results from patent US12642805B2, “Use of oxygenated cholesterol sulfates for treating at least one of insulin resistance, diabetes, and prediabetes” (Medicis Pharmaceutical Corporation, priority 2020, dated 2026).

Tested on: Huh-7 cells
Assay: whole genome bisulfite sequencing (WGBS), 5mCpG demethylation in promoter regions
Assay type: cell-based, human
Experimental: Each sample, 2 μg, was sent to EpigenDx, Inc. (Hopkinton, MA) for analysis of global methylation bisulfite sequencing. The same samples, 6 μg, were sent to Novogene Co., Ltd (Tianjin, China) for analysis of whole genome bisulfite sequencing (WGBS). Total RNA was isolated using the Promega SV total RNA isolation system (Madison, WI) with DNase treatment. Each sample, 2 μg, was used for the first-strand cDNA synthesis as recommended by the manufacturer (Invitrogen, Carlsbad, CA). Real-time RT-PCR was performed using SYBR Green as the indicator on ABI 7500 Fast Real-Time PCR System (Applied Biosystems, Foster City, CA). Amplifications of β-actin or GAPDH were used as internal controls. Relative messenger RNA (mRNA) expression was quantified with the comparative cycle threshold (Ct) method using the primer set shown in Table 1.1 and was expressed as 2^−ΔΔCt.
Each sample, […] of genomic DNA spiked with 26 ng lambda DNA, was fragmented by sonication to 200-300 bp with Covaris S220, followed by end repair and adenylation. Cytosine-methylated barcodes were ligated to sonicated DNA per the manufacturer's instructions. These DNA fragments were treated twice with bisulfite using EZ DNA Methylation-Gold™ Kit (Zymo Research) before the resulting single-strand DNA fragments were PCR amplified using KAPA HiFi Hot Start Uracil and Ready Mix (2×). Library concentration was quantified by Qubit® 2.0 Flurometer (Life Technologies, CA, USA) and quantitative PCR, and the insert size was assayed on an Agilent Bioanalyzer 2100 system.
The library preparations were sequenced on an Illumina Hiseq 2500/4000 or Novaseq platform and 125 bp/150 bp paired-end reads were generated. Image analysis and base calling were performed with Illumina CASAVA pipeline. Trimmomatic (Trimmomatic-0.36) software was used for quality control. Bismark software (version 0.16.3; Krueger F, 2011) was used to perform alignments of bisulfite-treated reads to a reference genome (−X 700-dovetail). DSS software (23) was used to identify differentially methylated regions (DMRs). KOBAS software was used to test the statistical enrichment of DMR related genes in the Kyoto Encyclopedia of Genes and Genomes (KEGG) pathways.
Each sample (6 μg) was used for analysis of the whole genome bisulfite sequencing (WGBS).

## C[C@H](CCCC(C)(C)O)[C@H]1CC[C@H]2[C@@H]3CC=C4C[C@@H](OS(=O)(=O)O)CC[C@]4(C)[C@H]3CC[C@]12C [25HC3S, 25-hydroxycholesterol-3-sulfate]
HG 72 h, then 25HC3S 4 h
  genes demethylated in promoter regions, Calcium signaling pathway: 19 genes
  genes demethylated in promoter regions, MAPK signaling pathway: 23 genes
  genes demethylated in promoter regions, cAMP signaling pathway: 28 genes
High glucose model
  genes with 5mCpG converted to CpG in promoter regions: 1074 genes
